In patent US8735384B2, “Amino heteroaryl compounds as beta-secretase modulators and methods of use” (Amgen Inc., priority 2010, dated 2014):

Columns and labels:
BACE1 = BACE1 (Homo sapiens, UniProt P56817); assay: In vitro enzymatic BACE FRET assay; format: biochemical; details: beta secretase enzyme 0.2 nM, FRET substrate 50 nM, pH 4.2; read-out: BACE1 FRET assay (IC50 class)
How it was run: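 Beta-secretase (0.2 nM) was pre-incubated 1 h with serially diluted inhibitor in 0.05 M acetate pH 4.2, 10% DMSO, 100 uM genapol. Then 50 nM quenched peptide FRET substrate was added for 1 h. The reaction was stopped with Tris to neutral pH and fluorescence read ([…]).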

[1] = tested on: Aβ40 in conditioned medium of cells stably expressing Amyloid Precursor Protein (APP); assay: In vitro BACE cell-based assay (HEK cell assay), Aβ40 sandwich ELISA; details: Homo sapiens, HEK293, 24 h, inhibition of Aβ40, 24 h incubation, read-out: HEK cell assay (IC50 class)
How it was run: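 APP-stably expressing cells (40K/well) grown 24 h, then treated 24 h with 10-point doses from 100 μM or 10 μM top (0.1% DMSO). Secreted Aβ40 quantified by sandwich ELISA (pAb40 capture, biotinylated 6E10 detection, europium time-resolved fluorescence); IC50 from percent inhibition versus concentration.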

BACE1, sequence (P56817 46-501, species assumed): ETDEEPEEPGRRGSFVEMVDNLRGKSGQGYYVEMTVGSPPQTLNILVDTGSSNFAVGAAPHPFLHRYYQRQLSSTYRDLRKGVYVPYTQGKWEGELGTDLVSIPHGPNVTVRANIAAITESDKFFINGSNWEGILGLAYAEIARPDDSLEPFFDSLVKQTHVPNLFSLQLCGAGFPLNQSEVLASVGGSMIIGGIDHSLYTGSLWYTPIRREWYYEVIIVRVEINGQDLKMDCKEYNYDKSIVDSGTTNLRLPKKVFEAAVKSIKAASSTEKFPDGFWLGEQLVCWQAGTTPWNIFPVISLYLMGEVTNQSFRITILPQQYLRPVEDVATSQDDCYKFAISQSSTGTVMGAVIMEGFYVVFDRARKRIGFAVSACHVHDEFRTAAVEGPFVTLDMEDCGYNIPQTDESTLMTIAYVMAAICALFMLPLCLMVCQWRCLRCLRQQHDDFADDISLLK

| SMILES | IC50 (BACE1) [µM] | IC50 [1] [µM] |
| --- | --- | --- |
| CCCCN(CC)C(=O)c1cccc(C)c1-c1ccc2nc(N)c(N3CCOCC3)cc2c1 [Example 118, 2-(2-amino-3-morpholinoquinolin-6-yl)-N-butyl-N-ethyl-3-methylbenzamide] | 0.501 to 1 | 1.01 to 5 |
| Cc1cccc(C(=O)N(C)CCC(C)C)c1-c1ccc2nc(N)c(N3CCOCC3)cc2c1 [Example 119, 2-(2-amino-3-morpholinoquinolin-6-yl)-N-isopentyl-N,3-dimethylbenzamide] | 0.1 to 0.5 | 1.01 to 5 |
| CCN(C)C(=O)c1cccc(C)c1-c1ccc2nc(N)c(N3CCOCC3)cc2c1 [Example 121, 2-(2-amino-3-morpholinoquinolin-6-yl)-N-ethyl-N,3-dimethylbenzamide] | 0.1 to 0.5 | 1.01 to 5 |
| Cc1cccc(C(=O)N(C)C(C)(C)C)c1-c1ccc2nc(N)c(N3CCOCC3)cc2c1 [Example 123, 2-(2-amino-3-morpholinoquinolin-6-yl)-N-tert-butyl-N,3-dimethylbenzamide] | < 0.1 | 0.501 to 1 |
| Cc1cccc(C(=O)N(C)c2ccccc2)c1-c1ccc2nc(N)c(N3CCOCC3)cc2c1 [Example 126, 2-(2-amino-3-morpholinoquinolin-6-yl)-N,3-dimethyl-N-phenylbenzamide] | 0.1 to 0.5 | 1.01 to 5 |
| Cc1cccc(C(=O)Nc2ccccc2)c1-c1ccc2nc(N)c(N3CCOCC3)cc2c1 [Example 127, 2-(2-amino-3-morpholinoquinolin-6-yl)-3-methyl-N-phenylbenzamide] | 1.01 to 5 | > 5 |
| Nc1nc2ccc(-c3ccc(F)cc3C(=O)N3CCC3)cc2cc1N1CCOCC1 [Example 128, (2-(2-amino-3-morpholinoquinolin-6-yl)-5-fluorophenyl)(azetidin-1-yl)methanone] | 1.01 to 5 | > 5 |
| CCOC(=O)c1cc(F)cc(C)c1-c1ccc2nc(N)c(N3CCOCC3)cc2c1 [Example 129, ethyl 2-(2-amino-3-morpholinoquinolin-6-yl)-5-fluoro-3-methylbenzoate] | 0.1 to 0.5 | 1.01 to 5 |
| Cc1ccc(N(C)C(=O)c2cccc(C)c2-c2ccc3nc(N)c(N4CCOCC4)cc3c2)cc1 [Example 131, 2-(2-amino-3-morpholinoquinolin-6-yl)-N,3-dimethyl-N-p-tolylbenzamide] | < 0.1 | 1.01 to 5 |
| COc1ccc(N(C)C(=O)c2cccc(C)c2-c2ccc3nc(N)c(N4CCOCC4)cc3c2)cc1 [Example 132, 2-(2-amino-3-morpholinoquinolin-6-yl)-N-(4-methoxyphenyl)-N,3-dimethylbenzamide] | < 0.1 | 0.501 to 1 |
| Cc1cccc(C(=O)N(C)Cc2cccc3ccccc23)c1-c1ccc2nc(N)c(N3CCOCC3)cc2c1 [Example 135, 2-(2-amino-3-morpholinoquinolin-6-yl)-N,3-dimethyl-N-(naphthalen-1-ylmethyl)benzamide] | 0.1 to 0.5 | 1.01 to 5 |
| Cc1cccc(C(=O)N(C)Cc2ccccc2)c1-c1ccc2nc(N)c(N3CCOCC3)cc2c1 [Example 136, 2-(2-amino-3-morpholinoquinolin-6-yl)-N-benzyl-N,3-dimethylbenzamide] | 0.1 to 0.5 | 1.01 to 5 |
| Cc1cccc(C(=O)N(C)CCc2ccccc2)c1-c1ccc2nc(N)c(N3CCOCC3)cc2c1 [Example 137, 2-(2-amino-3-morpholinoquinolin-6-yl)-N,3-dimethyl-N-phenethylbenzamide] | 0.1 to 0.5 | 1.01 to 5 |
| Nc1nc2cc(F)c(-c3ccccc3C(=O)N3CCCC3)cc2cc1N1CCOCC1 [Example 140, (2-(2-amino-7-fluoro-3-morpholinoquinolin-6-yl)phenyl)(pyrrolidin-1-yl)methanone] | 0.1 to 0.5 | 1.01 to 5 |
| Nc1nc2ccc(-c3cccc(Cl)c3C(=O)N3CCCC3)cc2cc1N1CCOCC1 [Example 141, (2-(2-amino-3-morpholinoquinolin-6-yl)-6-chlorophenyl)(pyrrolidin-1-yl)methanone] | 1.01 to 5 | > 5 |
| Nc1nc2ccc(-c3cccc(F)c3C(=O)N3CCCC3)cc2cc1N1CCOCC1 [Example 142, (2-(2-amino-3-morpholinoquinolin-6-yl)-6-fluorophenyl)(pyrrolidin-1-yl)methanone] | 1.01 to 5 | > 5 |
| Nc1nc2ccc(-c3c(Cl)cccc3C(=O)N3CCCCC3)cc2cc1N1CCOCC1 [Example 143, (2-(2-amino-3-morpholinoquinolin-6-yl)-3-chlorophenyl)(piperidin-1-yl)methanone] | < 0.1 | 1.01 to 5 |
| Nc1nc2ccc(-c3c(Cl)cccc3C(=O)N3CCOCC3)cc2cc1N1CCOCC1 [Example 144, (2-(2-amino-3-morpholinoquinolin-6-yl)-3-chlorophenyl)(morpholino)methanone] | 0.1 to 0.5 | 1.01 to 5 |

Other lines, results leading:

| IC50 (BACE1) [µM] | IC50 [1] [µM] | SMILES |
| --- | --- | --- |
| < 0.1 | 1.01 to 5 | CCCC(C)N(C)C(=O)c1cccc(C)c1-c1ccc2nc(N)c(N3CCOCC3)cc2c1 (stereo not drawn) [Example 120, 2-(2-amino-3-morpholinoquinolin-6-yl)-N,3-dimethyl-N-(pentan-2-yl)benzamide] |
| < 0.1 | 0.501 to 1 | Cc1cccc(C(=O)N(C)C2CCC(C)CC2)c1-c1ccc2nc(N)c(N3CCOCC3)cc2c1 (stereo not drawn) [Example 122, 2-(2-amino-3-morpholinoquinolin-6-yl)-N,3-dimethyl-N-(4-methylcyclohexyl)benzamide] |
| < 0.1 | 1.01 to 5 | Cc1cccc(C(=O)N2C(C)CCCC2C)c1-c1ccc2nc(N)c(N3CCOCC3)cc2c1 (stereo not drawn) [Example 124, (2-(2-amino-3-morpholinoquinolin-6-yl)-3-methylphenyl)(2,6-dimethylpiperidin-1-yl)methanone] |
| < 0.1 | 0.501 to 1 | Cc1cccc(C(=O)N2C(C)C=CC2C)c1-c1ccc2nc(N)c(N3CCOCC3)cc2c1 (stereo not drawn) [Example 125, (2-(2-amino-3-morpholinoquinolin-6-yl)-3-methylphenyl)(2,5-dimethyl-2,5-dihydro-1H-pyrrol-1-yl)methanone] |
| < 0.1 | 0.1 to 0.5 | Cc1cc(F)cc(C(=O)N2CC[C@@H](F)C2)c1-c1ccc2nc(N)c(N3CCOCC3)cc2c1 [Example 130, (R)-(2-(2-amino-3-morpholinoquinolin-6-yl)-5-fluoro-3-methylphenyl)(3-fluoropyrrolidin-1-yl)methanone] |
| < 0.1 | 1.01 to 5 | Cc1cccc(C(=O)N(C)[C@H](C)c2ccccc2)c1-c1ccc2nc(N)c(N3CCOCC3)cc2c1 [Example 133, (R)-2-(2-amino-3-morpholinoquinolin-6-yl)-N,3-dimethyl-N-(1-phenylethyl)benzamide] |
| 0.1 to 0.5 | 1.01 to 5 | Cc1cccc(C(=O)N(C)C)c1-c1ccc2nc(N)c(N3CCOCC3)cc2c1 [Example 134, 2-(2-amino-3-morpholinoquinolin-6-yl)-N,N,3-trimethylbenzamide] |
| 0.1 to 0.5 | 1.01 to 5 | Cc1cccc(C(=O)N(C)c2ccc(F)cc2)c1-c1ccc2nc(N)c(N3CCOCC3)cc2c1 [Example 138, 2-(2-amino-3-morpholinoquinolin-6-yl)-N-(4-fluorophenyl)-N,3-dimethylbenzamide] |
| < 0.1 | 1.01 to 5 | COc1ccccc1N(C)C(=O)c1cccc(C)c1-c1ccc2nc(N)c(N3CCOCC3)cc2c1 [Example 139, 2-(2-amino-3-morpholinoquinolin-6-yl)-N-(2-methoxyphenyl)-N,3-dimethylbenzamide] |
